# Source: PubChem BioAssay (NCI)
#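 Assay format: 96-well plates, 48-hour exposure. Here, GI50 denotes the concentration required for 50% inhibition of growth. The concentration for full growth arrest is given as TGI.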
# Key:
# Assay in all cases: NCI-60 cell line screen, 48 h
# MALME-3M melanoma = test system: MALME-3M melanoma
# UO-31 renal = test system: UO-31 renal
# HCT-116 colon = test system: HCT-116 colon
# U251 CNS = test system: U251 CNS
# EKVX NSCLC = test system: EKVX NSCLC
# MOLT-4 leukemia = test system: MOLT-4 leukemia
# HS 578T breast = test system: HS 578T breast
# A549 NSCLC = test system: A549 NSCLC
# RXF 393 renal = test system: RXF 393 renal
# NCI-H23 lung = test system: NCI-H23 lung
# HOP-62 NSCLC = test system: HOP-62 NSCLC
# SF-539 CNS = test system: SF-539 CNS
# M14 melanoma = test system: M14 melanoma
# OVCAR-4 ovarian = test system: OVCAR-4 ovarian
# KM12 colon = test system: KM12 colon
# A498 renal = test system: A498 renal
# BT-549 breast = test system: BT-549 breast
# OVCAR-8 ovarian = test system: OVCAR-8 ovarian
# SNB-75 CNS = test system: SNB-75 CNS
# OVCAR-5 ovarian = test system: OVCAR-5 ovarian
# CAKI-1 renal = test system: CAKI-1 renal
# SN12C renal = test system: SN12C renal
# MDA-MB-231 breast = test system: MDA-MB-231 breast
# CCRF-CEM leukemia = test system: CCRF-CEM leukemia
# HCC-2998 colon = test system: HCC-2998 colon
# UACC-62 melanoma = test system: UACC-62 melanoma
# SR leukemia = test system: SR leukemia
# K-562 leukemia = test system: K-562 leukemia
# NCI/ADR-RES ovarian = test system: NCI/ADR-RES ovarian
# PC-3 prostate = test system: PC-3 prostate
# DU-145 prostate = test system: DU-145 prostate
# SK-MEL-2 melanoma = test system: SK-MEL-2 melanoma
# SK-MEL-28 melanoma = test system: SK-MEL-28 melanoma
# MDA-MB-468 breast = test system: MDA-MB-468 breast
# NCI-H522 lung = test system: NCI-H522 lung
# COLO 205 colon = test system: COLO 205 colon
# SF-268 CNS = test system: SF-268 CNS
# LOX IMVI melanoma = test system: LOX IMVI melanoma
# T-47D breast = test system: T-47D breast
# HT29 colon = test system: HT29 colon
# SW-620 colon = test system: SW-620 colon
# SNB-19 CNS = test system: SNB-19 CNS
# OVCAR-3 ovarian = test system: OVCAR-3 ovarian
# HCT-15 colon = test system: HCT-15 colon
# NCI-H460 lung = test system: NCI-H460 lung
# NCI-H226 lung = test system: NCI-H226 lung
# IGROV1 ovarian = test system: IGROV1 ovarian
# MCF7 breast = test system: MCF7 breast
# HOP-92 NSCLC = test system: HOP-92 NSCLC
# SF-295 CNS = test system: SF-295 CNS
# UACC-257 melanoma = test system: UACC-257 melanoma
# 786-0 renal = test system: 786-0 renal
# MDA-MB-435 = test system: MDA-MB-435
# HL-60(TB) leukemia = test system: HL-60(TB) leukemia
# RPMI-8226 leukemia = test system: RPMI-8226 leukemia
# TK-10 renal = test system: TK-10 renal
# ACHN renal = test system: ACHN renal
# SK-MEL-5 melanoma = test system: SK-MEL-5 melanoma
# SK-OV-3 ovarian = test system: SK-OV-3 ovarian
structure (smiles),measurement,setting,value
O=C(Nc1ccc(-c2ccc3c(c2)NC(=O)/C3=C\c2ccc[nH]2)cc1)Nc1cccc(Cl)c1,GI50,MALME-3M melanoma,2.32 µM
same,TGI,MALME-3M melanoma,7.2 µM
same,GI50,UO-31 renal,1.77 µM
same,TGI,UO-31 renal,12.7 µM
same,GI50,HCT-116 colon,1.68 µM
same,TGI,HCT-116 colon,11.7 µM
same,GI50,U251 CNS,2.98 µM
same,TGI,U251 CNS,11.6 µM
same,GI50,EKVX NSCLC,0.775 µM
same,TGI,EKVX NSCLC,10.7 µM
same,GI50,MOLT-4 leukemia,0.895 µM
same,TGI,MOLT-4 leukemia,11.1 µM
same,GI50,HS 578T breast,2.73 µM
same,TGI,HS 578T breast,8.74 µM
same,GI50,A549 NSCLC,2.09 µM
same,TGI,A549 NSCLC,7.09 µM
same,GI50,RXF 393 renal,2.07 µM
same,TGI,RXF 393 renal,4.52 µM
same,GI50,NCI-H23 lung,1.08 µM
same,TGI,NCI-H23 lung,3.79 µM
same,GI50,HOP-62 NSCLC,1.99 µM
same,TGI,HOP-62 NSCLC,6.15 µM
same,GI50,SF-539 CNS,1.43 µM
same,TGI,SF-539 CNS,3.06 µM
same,GI50,M14 melanoma,3.23 µM
same,TGI,M14 melanoma,26.1 µM
same,GI50,OVCAR-4 ovarian,1.76 µM
same,TGI,OVCAR-4 ovarian,9.71 µM
same,GI50,KM12 colon,0.0672 µM
same,TGI,KM12 colon,2 µM
same,GI50,A498 renal,3.46 µM
same,TGI,A498 renal,11.1 µM
same,GI50,BT-549 breast,2.33 µM
same,TGI,BT-549 breast,6.65 µM
same,GI50,OVCAR-8 ovarian,2.44 µM
same,TGI,OVCAR-8 ovarian,6.53 µM
same,GI50,SNB-75 CNS,2.97 µM
same,TGI,SNB-75 CNS,7.93 µM
same,GI50,OVCAR-5 ovarian,1.78 µM
same,TGI,OVCAR-5 ovarian,3.76 µM
same,GI50,CAKI-1 renal,1.33 µM
same,TGI,CAKI-1 renal,6.39 µM
same,GI50,SN12C renal,4.44 µM
same,TGI,SN12C renal,24.3 µM
same,GI50,MDA-MB-231 breast,1.64 µM
same,TGI,MDA-MB-231 breast,3.86 µM
same,GI50,CCRF-CEM leukemia,0.846 µM
same,TGI,CCRF-CEM leukemia,4.41 µM
same,GI50,HCC-2998 colon,1.78 µM
same,TGI,HCC-2998 colon,5.61 µM
same,GI50,UACC-62 melanoma,2.1 µM
same,TGI,UACC-62 melanoma,6.03 µM
same,GI50,SR leukemia,1.27 µM
same,TGI,SR leukemia,32.5 µM
same,GI50,K-562 leukemia,1.09 µM
same,TGI,K-562 leukemia,> 100 µM
same,GI50,NCI/ADR-RES ovarian,2.14 µM
same,TGI,NCI/ADR-RES ovarian,6.01 µM
same,GI50,PC-3 prostate,2.19 µM
same,TGI,PC-3 prostate,11.2 µM
same,GI50,DU-145 prostate,4.76 µM
same,TGI,DU-145 prostate,92.8 µM
same,GI50,SK-MEL-2 melanoma,2.2 µM
same,TGI,SK-MEL-2 melanoma,6.05 µM
same,GI50,SK-MEL-28 melanoma,3.09 µM
same,TGI,SK-MEL-28 melanoma,10.2 µM
same,GI50,MDA-MB-468 breast,0.286 µM
same,TGI,MDA-MB-468 breast,0.838 µM
same,GI50,NCI-H522 lung,1.6 µM
same,TGI,NCI-H522 lung,5.1 µM
same,GI50,COLO 205 colon,1.92 µM
same,TGI,COLO 205 colon,3.79 µM
same,GI50,SF-268 CNS,4.6 µM
same,TGI,SF-268 CNS,60.9 µM
same,GI50,LOX IMVI melanoma,1.53 µM
same,TGI,LOX IMVI melanoma,3.39 µM
same,GI50,T-47D breast,0.424 µM
same,TGI,T-47D breast,5.36 µM
same,GI50,HT29 colon,1.86 µM
same,TGI,HT29 colon,4.54 µM
same,GI50,SW-620 colon,2.29 µM
same,TGI,SW-620 colon,11.7 µM
same,GI50,SNB-19 CNS,4.7 µM
same,TGI,SNB-19 CNS,35.8 µM
same,GI50,OVCAR-3 ovarian,1.69 µM
same,TGI,OVCAR-3 ovarian,3.85 µM
same,GI50,HCT-15 colon,1.9 µM
same,TGI,HCT-15 colon,10.8 µM
same,GI50,NCI-H460 lung,0.766 µM
same,TGI,NCI-H460 lung,4 µM
same,GI50,NCI-H226 lung,2.51 µM
same,TGI,NCI-H226 lung,9.27 µM
same,GI50,IGROV1 ovarian,1.7 µM
same,TGI,IGROV1 ovarian,3.78 µM
same,GI50,MCF7 breast,0.329 µM
same,TGI,MCF7 breast,7.58 µM
same,GI50,HOP-92 NSCLC,4.81 µM
same,TGI,HOP-92 NSCLC,24.4 µM
same,GI50,SF-295 CNS,1.9 µM
same,TGI,SF-295 CNS,5.02 µM
same,GI50,UACC-257 melanoma,3.42 µM
same,TGI,UACC-257 melanoma,24.5 µM
same,GI50,786-0 renal,2.42 µM
same,TGI,786-0 renal,7.45 µM
same,GI50,MDA-MB-435,1 µM
same,TGI,MDA-MB-435,14.1 µM
same,GI50,HL-60(TB) leukemia,1.64 µM
same,TGI,HL-60(TB) leukemia,14.5 µM
same,GI50,RPMI-8226 leukemia,2.62 µM
same,TGI,RPMI-8226 leukemia,15.3 µM
same,GI50,TK-10 renal,2.88 µM
same,TGI,TK-10 renal,9.85 µM
same,GI50,ACHN renal,1.81 µM
same,TGI,ACHN renal,6.57 µM
same,GI50,SK-MEL-5 melanoma,1.88 µM
same,TGI,SK-MEL-5 melanoma,4.5 µM
same,GI50,SK-OV-3 ovarian,3.43 µM
same,TGI,SK-OV-3 ovarian,14.4 µM
